{
  "source": "patent US20230329308A1",
  "about": "“COMPOSITIONS COMPRISING A MINERAL SALT FOR ORAL USE” (DIFASS INTERNATIONAL S.P.A., priority 2020, published 2023)",
  "key": {"[1]": {"assay": "Comparative iron release profile, simulated gastrointestinal conditions, ICP-OES", "type": "physicochemical", "conditions": "sample equivalent to 30 mg elemental iron, HCl 0.1N then pH 6.8, 37°C", "procedure": "The release profile and bioavailability of the composition according to the invention were analysed and measured by comparison with iron sulphate (the preferred form for pharmacological treatment) using an in vitro system, under conditions simulating the gastrointestinal environment.\nThe tests were conducted according to methods published in the international scientific literature and internally validated.\nFor the measurement of the comparative release profile, amounts of the two test samples were first weighed, both equivalent to 30 mg of elemental iron. The samples were initially placed in contact with a solution of HCl (0.1N) and incubated at a temperature of 37±0.5° C. A solution of Na2HPO4 was then added to the samples to buffer the pH to a value of 6.8. Said conditions were maintained throughout the remainder of the experiment. To evaluate the release profile of the iron, the two samples were centrifuged at 10,000 rpm at pre-set time intervals such as 1, 2, 4, 6 and 24 h. At the end of centrifugation the samples were taken up and analysed to evaluate the iron release profiles. The iron determination analyses were conducted with the ICP-OES THERMO FISHER ICAP 6300."}, "[2]": {"assay": "In vitro bioavailability study, dialysis membrane method with simulated buccal, gastric and intestinal digestion", "type": "in vitro ADME", "procedure": "The in vitro bioavailability study was conducted by the dialysis membrane method. Said method, by its nature, is based on the physicochemical characteristics of the environments wherein the desired substance passes from one compartment to the other, and takes no account of any active mechanisms or biological interaction. The method involves three successive simulated digestion stages: buccal digestion in the presence of amylase, gastric digestion in the presence of pepsin, and finally, intestinal digestion in the presence of pancreatin.\nIn order to simulate buccal digestion, suitable amounts of the test samples were placed in contact with 10 mg of amylase and 1.5 mL of PBS at pH 6.9 (10^-3 M). The resulting mixtures were inserted into dialysis membranes (Spectrum Laboratories Inc., USA, MWCO: 12-14,000 Daltons), tightly closed at each end and immersed in vials containing PBS at pH 6.9. The samples were then incubated at a temperature of 37±0.5° C. for 5 minutes.\nAfter incubation, HCl (0.85N), pepsin and a solution of NaN3 (0.04% w/w) were added to the open membranes. The membranes were closed, placed in vials containing HCl (0.85N), and incubated at 37±0.5° C. for 2 h.\nAfter said 2 h period, a solution of NaHCO3 (0.8 M) and pancreatin was added. The closed membranes were placed in vials containing PBS at pH 7.0, and incubated at a temperature of 37±0.5° C. for a further 4 h.\nTo evaluate the in vitro bioavailability of the iron, the solution contained in the vials was taken up after each digestion step, and the samples were analysed with an ICP-OES THERMO FISHER ICAP 6300.\nBioavailability is defined as the percentage of iron recovered in the bioaccessible fraction after in vitro digestion, in relation to the original undigested sample, and calculated with the equation: (bioaccessible fraction/total content)×100%."}, "[3]": {"assay": "Evaluation of organoleptic characteristics of the granulate vs iron fumarate (Example II)", "type": "in vivo, human", "conditions": "score 1 (intolerable) to 5 (highly tolerable); one score per participant, 4 subjects; amount equivalent to 14 mg elemental iron", "procedure": "A portion of the granulate described in Example I and a portion of commercially available iron fumarate, both equivalent to 14 mg of elemental iron (100% of Nutrient Reference Value—EU Reg. 1169/2011) were weighed separately using known procedures.\nThe following trial protocol was used to evaluate the organoleptic characteristics of the two samples compared.\nEach of the compositions listed in Table II above was tested on a group of 4 subjects. The inclusion criteria for admission to the test were solely ethical: the subjects had to be over the age of majority, healthy, and not suffering from any taste and/or iron metabolism alterations correlated with disorders and/or illnesses.\nEach subject independently tasted first one and then the other sample of the example, maintaining a suitable time interval (at least 2 hours) between one tasting and the next, and rinsing their mouth, so that the evaluation of each administration was not influenced by the previous one.\nOn each tasting, the following parameters were evaluated: metallic odour and flavour, gastrointestinal tolerability, aftertaste, and staining of teeth, tongue and/or palate. […]"}, "[4]": {"conditions": "in words; cited from earlier work"}, "[5]": {"conditions": "in words; cited from earlier work", "remark": "listed apart in the source"}},
  "note": "Entries after “also recorded” stand apart in the source; their conditions may differ.",
  "data": [
    {"molecule": "O=S(=O)([O-])[O-].[Fe+2]", "note": "[Ferrous sulphate]", "values": [
      {"measurement": "Iron released", "setting": "[1]; 1 h", "result": "84.16 ± 1.07"},
      {"measurement": "Iron released", "setting": "[1]; 2 h", "result": "85.22 ± 0.98"},
      {"measurement": "Iron released", "setting": "[1]; 4 h", "result": "100.03 ± 0.20"},
      {"measurement": "Bioaccessible fraction, buccal digestion", "setting": "[2]; amylase, PBS pH 6.9, 37°C, 5 minutes", "result": "8.61 ± 0.73"},
      {"measurement": "Bioaccessible fraction, intestinal digestion", "setting": "[2]; pancreatin, NaHCO3, PBS pH 7.0, 37°C, 4 h", "result": "7.16 ± 0.41"},
      {"measurement": "Bioaccessible fraction, gastric digestion", "setting": "[2]; pepsin, HCl 0.85N, 37°C, 2 h", "result": "65.81 ± 1.39"}
    ]},
    {"molecule": "O=C([O-])/C=C/C(=O)[O-].[Fe+2]", "note": "[Sample B, Iron fumarate]", "values": [
      {"measurement": "Gastrointestinal tolerability", "setting": "[3]", "result": "Gastrointestinal tolerability: 5; also recorded: Gastrointestinal tolerability: 3"},
      {"measurement": "Water solubility compared with iron sulphate", "setting": "[4]", "result": "far less water-soluble than iron sulphate"},
      {"measurement": "Iron release compared with iron sulphate", "setting": "[5]", "result": "generically lower iron release than iron sulphate"}
    ]}
  ]
}
